Laboratory results taken from patent US6495376B1, “Methods and compositions for regulating protein-protein interactions” (Beth Israel Deaconess Medical Center, priority 1999, dated 2002).
pKd: −log10 of the molar value. Read-outs that look alike come from different tables or passages of the source. Where no end group is shown, it is not given here. [ ]: non-standard residue; d: D form. pT = C[C@@H](OP(=O)(O)O)[C@H](N)C(=O)O; pS = N[C@@H](COP(=O)(O)O)C(=O)O

Key:
Pin1 = Pin1 (Homo sapiens, UniProt Q13526); assay: ELISA peptide binding to Pin1; conditions: for Binding (OD@405 nm), tau peptides: Pin1; for Binding (OD@405 nm), Amyloid Precursor Protein Peptide: protein not printed in these lines, text: Pin1 WW-domain
Chain of Pin1 (Q13526 whole entry): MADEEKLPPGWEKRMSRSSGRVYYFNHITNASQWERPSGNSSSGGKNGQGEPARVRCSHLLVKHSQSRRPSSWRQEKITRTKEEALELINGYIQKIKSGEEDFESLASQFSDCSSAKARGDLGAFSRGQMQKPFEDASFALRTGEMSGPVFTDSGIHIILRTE

WFYSPFLE = assay: Fluorescence anisotropy binding to fluorescein-labeled nonphosphorylated control peptide; conditions: nonphosphorylated peptide
WFYpSPFLE (Pintide) = assay: Fluorescence anisotropy (polarization) binding to fluorescein-labeled phosphorylated Pintide analogue; conditions: for pKd: fluorescein labeled Pintide, high affinity pSer-binding site in the WW-domain, read-out: Kd for Pintide
Description: To determine the affinity of Pin1, and its WW or PPIase domain for phosphopeptides, peptides were labeled with fluorescein and their interactions with Pin1 measured using quantitative fluorescence anisotrophy. To prevent nonspecific labeling, a Pintide analogue (WFYpSPFLE) SEQ ID NO: 9 was used, which binds Pin1 with a high affinity based on the peptide library screen as described by (Lu, K. P. et al., U.S. Ser. No. 60/058,164 (1997), the teachings of which are incorporated herein in their entirety.
(§1) Pintide and its nonphosphorylated counterpart were synthesized and incubated with GST-Pin1 or the GST-WW-domain of Pin1 in a binding buffer, using established procedures (Shen, M. et al., Genes & Dev 12:706 (1998)). After a 1 hr incubation, mitotic HeLa cell extracts were added and subjected to GST pull down experiments, followed by immunoblotting analysis using the MPM-2 antibody. To obtain semi-quantitative data, films of immunoblots were scanned at the region of 55 kDa, the major Pin1-binding protein, and data analyzed using ImageQuan (ScanJet II CX). The peptide binding constants were measured using a fluorescence polarization assay (Jiskoot, W. et al., Anal Biochem 196:421 (1991)). Peptides were fluorescein labeled at the N-terminus using the Fluorescein Amine Labeling Kit (Pan Vera Corp.) and purified by TLC according to the manufacturer's […]. To prevent nonspecific labeling, a Pintide analogue (WFYpSPFLE) SEQ ID NO: 8 and the nonphosphorylated control were used. Various concentrations of Pin1 and its mutant proteins were incubated with 0.1 μM of the labeled peptides in a binding buffer containing 50 mM HEPES, pH 7.4, 100 mM NaCl, 2% glycerol. Fluorescence polarization values were obtained using a Pan Vera Beacon 2000 system, as described by the manufacturer.

phosphorylated tau = assay: GST-Pin1 pulldown of tau; format: binding; conditions: AD brain extracts, PHFs or age-matched normal brain extracts
Chain of phosphorylated tau (P10636 45-216 isoform P10636-2 limits assumed): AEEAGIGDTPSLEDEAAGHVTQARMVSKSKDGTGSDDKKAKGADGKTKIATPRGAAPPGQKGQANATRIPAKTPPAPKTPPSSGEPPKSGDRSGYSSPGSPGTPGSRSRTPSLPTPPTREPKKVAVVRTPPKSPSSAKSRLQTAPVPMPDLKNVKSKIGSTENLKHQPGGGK
Description: Pin1 binds and regulates the function of a defined subset of mitotic phosphoproteins by interacting with conserved phosphorylated Ser/Thr-Pro motifs that are also recognized by MPM-2, a mitosis-specific, phosphorylation-dependent monoclonal antibody (mAb) (Yaffe, M. B. et al., Science 278:1957-1960 (1997); Shen, M. et al., Genes Dev. 12:706-720 (1 998)). Tau is an MPM-2 antigen phosphorylated on multiple Ser/Thr-Pro motifs during mitosis (Illenberger, S. et al., Mol Biol Cell 9:1495-1512 (1998)). Experiments were undertaken to determine whether Pin1 binds tau. Tau isoform was either synthesized by in vitro transcription and translation in the presence of ^35S-Met or produced in bacteria as an N-terminal His-tagged protein, followed by purification using NTA-Ni columns (Yaffe, M. B. et al., Science 278:1957-1960 (1997); Shen, M. et al., Genes Dev. 12:706-720 (1998)). To generate interphase- and mitosis-specific phosphorylated form of tau, tau was incubated with Xenopus interphase and mitotic extracts, respectively (Shen, M. et al., Genes Dev. 12:706-720 (1998)). To prepare Cdc2 phosphorylated tau, purified recombinant tau was incubated with purified cyclin B/Cdc2 (UBI) for 6 to 12 hr at room temperature in a buffer containing 500 μM cold ATP, plus trace [^32P]-ATP in some experiments, (Vincent, I. et al., J Neurosci 17:3588-3598 (1997)).
Pin1 interactions with tau in AD brains were examined using a GST-Pin1 pulldown assay (Shen, M. et al., Genes Dev. 12:706-720 (1998)). Glutathione beads containing GST or GST-Pin1 were incubated with normal or AD brain extracts, or PHFs purified (Vincent, I. J. and Davies, P. Proc Natl Acad Sci USA 89:2878-2882 (1992)), and proteins associated with the beads were subjected to immunoblotting analysis using CP27, which recognizes all forms of tau. Recombinant and mutant Pin1 proteins were produced as N-terminal GST or His-tagged fusion proteins (Shen, M. et al., Genes Dev. 12:706-720 (1998)). PHFs were purified by immunoaffinity chromatography (Vincent, I. J. and Davies, P. Proc Natl Acad Sci USA 89:2878-2882 (1992)).
To determine whether Pin1 interacts with pT231-tau, GST-Pin1 beads were used to isolate tau from AD brain extracts or PHFs and T231 phosphorylation detected using CP9. Tau isolated by Pin1 beads was strongly immunoreactive with CP9. […] Thus, Pin1 binds pT231-tau through its WW-domain.

[1] = tested on: MPM-2 antigens (mitotic phosphoproteins) of mitotic HeLa cell extracts; assay: GST pulldown from mitotic HeLa cell extracts, MPM-2 immunoblotting (phosphoprotein-binding activity); conditions: for Phosphoprotein binding activity: GST-fusion proteins with mitotic extracts, MPM2 antibody; for binding to mitotic phosphoproteins / MPM-2 antigens (in words): mitotic HeLa cell extracts
Procedure: GST-fusion proteins containing the WW-domain, PPIase-domain or the entire Pin 1 protein were prepared and incubated with interphase (G1/S arrested; Control) or dividing (M phase) HeLa cell extracts using well-known procedures (Lu, K. P., et al., Nature 380:544 (1996); (Shen, M., et al., Genes & Devl. 12:706 (1998)). Briefly, HeLa cells were arrested at the G1/S boundary or mitosis by incubation with thymidine and aphidicolin or nocodazole for 16 h, respectively. The cells were lysed and supernatants incubated with 10 μl of agarose beads containing GST-Pin1; GST-WW-domain of Pin1; GST-PPIase domain of Pin1; or control GST for 2 h at 4° C. The phosphorylated precipitated proteins were washed 5 times in buffer containing 1% Triton X-100 before subjecting to immunoblotting analysis using MPM-2 antibody, as described previously (Yaffe, M. B. et al., Science 278:1957 (1997); Schukowski, et al., Biochemistry 37:5566 (1998); Shen, M. et al., Genes & Dev 12:706 (1998)). MPM-2 recognizes a subset of mitotic phosphoproteins including Pin1-binding proteins such as cdc25.
as §1
To examine the effect of Pin1 phosphorylation on Pin1 binding to ligands, Pin1 and Pin1 mutant proteins were incubated with the catalytic subunit of PKA and PKC (a mixture of α, β and γ, UBI) in a kinase reaction buffer containing 500 μM cold ATP at 30° C. for 15 min (Lu, K. P. et al., Anal. Biochem. 196:421 (1991)). The reactions were stopped by adding SDS sample buffer and reaction products separated on SDS-gels, followed by autoradiography. Pin1 proteins were isolated and used to bind MPM-2 antigens from mitotic extracts from HeLa cells, as previously described (Shen, M., et al., Genes & Dev 12:706 (1998)). Experiments were also performed with PKA and PKC, casein kinase, cyclin B/Cdc2 and SRPK1 kinases.

peptide substrate = assay: PPIase activity assay with peptide substrate; format: biochemical; conditions: relative to wild-type protein defined as 100%
Pin1 and its WW-domain = assay: Peptide competition of Pin1 / WW-domain binding to MPM-2 antigens of mitotic extracts; design: species or system human; conditions: for competition for phosphoprotein binding (in words): 0, 25, 50, 125, 250, 500 μM peptide
Chain of Pin1 and its WW-domain (Q13526 1-54 limits assumed): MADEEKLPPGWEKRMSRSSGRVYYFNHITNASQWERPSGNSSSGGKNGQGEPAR
Procedure: To examine the ability of a phosphopeptide to compete with phosphoproteins for binding to the WW-domain, the Pin1 binding phosphopeptide Pintide (WFYpSPRLKK, SEQ ID NO: 13) (Lu, K. P. et al., U.S. Ser. No. 60/058,164 (1997)) was used in competition assays. A nonphosphorylated counterpart of Pintide ([…], SEQ ID NO: 14) (C-Pintide) was used as a control.
as §1

[2] = high affinity binding site, read-out: WFYpSPFLE Kd(μM) High affinity
[3] = low affinity binding site, read-out: WFYpSPFLE Kd(μM) Low affinity
[4] = competition with MPM2 antigens of mitotic extracts

Substance: DAGLKESPLQTPTE (DAGLKE[pS]PLQTPTE) [pS-46]
- Binding (OD@405 nm), tau peptides (Pin1): 0.00 OD@405 nm

Substance: GSLDNITHVPGGG (GSLDNI[pT]HVPGGG) [pT-361]
- Binding (OD@405 nm), tau peptides (Pin1): 0.00 OD@405 nm

Substance: GST-Pin1: GST-fusion protein containing the entire Pin1 protein
- WFYSPFLE Kd (WFYSPFLE): Not binding
- Kd (WFYpSPFLE (Pintide); [2]): 1.2 µM
- Kd (WFYpSPFLE (Pintide); [3]): 13 µM
- binding to tau of brain extracts (phosphorylated tau): bound tau present in AD brain extracts or PHFs

Substance: GYSSPGSPGTPGSR (also: phosphoserine, place not given here) [pS-202]
- Binding (OD@405 nm), tau peptides (Pin1): 0.08 OD@405 nm

Substance: KEVDAAVTPEERHLS [T-668]
- Binding (OD@405 nm), Amyloid Precursor Protein Peptide (Pin1): 0.00 OD@405 nm

Substance: KEVDAAVTPEERHLS [pT-668] (KEVDAAV[pT]PEERHLS)
- Binding (OD@405 nm), Amyloid Precursor Protein Peptide (Pin1): 1.81 OD@405 nm

Substance: KVAVVRTPPKSPS [T-231]
- Binding (OD@405 nm), tau peptides (Pin1): 0.00 OD@405 nm

Substance: NVSSTGSIDMVDS (also: phosphoserine, place not given here) [pS-416]
- Binding (OD@405 nm), tau peptides (Pin1): 0.00 OD@405 nm

Substance: PRHLSNVSSTGSIDMV [pS-412] (PRHLSNV[pS]STGSIDMV)
- Binding (OD@405 nm), tau peptides (Pin1): 0.02 OD@405 nm

Substance: PRHLSNVSSTGSIDMV [pS-413] (PRHLSNVS[pS]TGSIDMV)
- Binding (OD@405 nm), tau peptides (Pin1): 0.00 OD@405 nm

Substance: Pin1^R14A: Pin1 with substitution of Arg-14 with Ala
- pKd (WFYpSPFLE (Pintide)): 5.70
- Kd (WFYpSPFLE (Pintide); [2]): 2 µM
- Kd (WFYpSPFLE (Pintide); [3]): 13.5 µM
- Phosphoprotein binding activity [1]: + (binding was detected)
- binding to mitotic phosphoproteins / MPM-2 antigens (in words) [1]: did not appear to cause a significant change
- PPlase Activity (%) (peptide substrate): 92%

Substance: Pin1^S16A: Pin1 with Ser-16 substituted with Ala
- pKd (WFYpSPFLE (Pintide)): 5.92
- Kd (WFYpSPFLE (Pintide); [2]): 1.2 µM
- Kd (WFYpSPFLE (Pintide); [3]): 10.5 µM
- Phosphoprotein binding activity [1]: + (binding was detected)
- binding to mitotic phosphoproteins / MPM-2 antigens (in words) [1]: interacted with all Pin1 ligands
- effect of phosphorylation by PKA on interaction with MPM2 antigens ([1]; protein phosphorylated by PKA before binding): not affected by PKA phosphorylation
- PPlase Activity (%) (peptide substrate): 96%

Substance: Pin1^S18E: Pin1 with Ser-18 mutated to Glu
- Kd (WFYpSPFLE (Pintide); [2]): 1 µM
- Kd (WFYpSPFLE (Pintide); [3]): 12 µM
- Phosphoprotein binding activity [1]: + (binding was detected)
- binding to mitotic phosphoproteins / MPM-2 antigens (in words) [1]: did not affect the ability of Pin1 to bind phosphoproteins
- PPlase Activity (%) (peptide substrate): 98%

Substance: Pin1^Y23F: Pin1 mutant, Tyr-23 replaced by Phe
- pKd (WFYpSPFLE (Pintide)): 5.30
- PPlase Activity (%) (peptide substrate): 94%

Substance: SIDMVDSPQLATL (also: phosphorylated Ser, place not given here) [pS-422]
- Binding (OD@405 nm), tau peptides (Pin1): 0.00 OD@405 nm

Substance: SRSRTPSLPTPPT (also: phosphoserine, place not given here) [pS-214]
- Binding (OD@405 nm), tau peptides (Pin1): 0.00 OD@405 nm

Substance: TRIPAKTPPAPKT (also: phosphorylated Thr, place not given here) [pT-175]
- Binding (OD@405 nm), tau peptides (Pin1): 0.00 OD@405 nm

Substance: TSPRHLSNVSSTG (also: phosphoserine, place not given here) [pS-409]
- Binding (OD@405 nm), tau peptides (Pin1): 0.00 OD@405 nm

Substance: VQSKIGSLDNITH (also: phosphoserine, place not given here) [pS-356]
- Binding (OD@405 nm), tau peptides (Pin1): 0.00 OD@405 nm

Substance: VRTPPKSPSSAKSR (also: phosphoserine, place not given here) [pS-235]
- Binding (OD@405 nm), tau peptides (Pin1): 0.11 OD@405 nm

Substance: WFYSPRLKK (not fully specified) [C-Pintide, nonphosphorylated counterpart of Pintide, control, reference compound]
- competition for phosphoprotein binding (in words) (Pin1 and its WW-domain): not with the nonphosphorylated peptide

Substance: WFYpSPRLKK (WFY[pS]PRLKK) [Pintide]
- competition for phosphoprotein binding (in words) (Pin1 and its WW-domain): significantly reduced in a concentration dependent manner
- peptide concentration with complete competition (Pin1 and its WW-domain; [4]): 250 to 500 µM
- peptide concentration with significant competition (Pin1 and its WW-domain; [4]): 50 µM
